Measured values taken from US7772402B2, “Optically detectable organophosphonates” (Austria Wirtschaftsservice Gesellschaft Mit Beschrankter …, priority 2003, dated 2010).

Experiments:
[1] = biological target: T1, lipase from Pseudomonas cepacia (PCL) (Burkholderia cepacia, UniProt P22088); experiment: Inhibition of lipase activity in Triton X-100 micelles, continuous fluorescence method; assay type: biochemical; conditions: incubation 4° C., 16 hrs; FIG. 3b
T1 construct: R.D. Schmid, University of Stuttgart (obtained, not a commercial purchase)
T1 sequence (P22088 45-364): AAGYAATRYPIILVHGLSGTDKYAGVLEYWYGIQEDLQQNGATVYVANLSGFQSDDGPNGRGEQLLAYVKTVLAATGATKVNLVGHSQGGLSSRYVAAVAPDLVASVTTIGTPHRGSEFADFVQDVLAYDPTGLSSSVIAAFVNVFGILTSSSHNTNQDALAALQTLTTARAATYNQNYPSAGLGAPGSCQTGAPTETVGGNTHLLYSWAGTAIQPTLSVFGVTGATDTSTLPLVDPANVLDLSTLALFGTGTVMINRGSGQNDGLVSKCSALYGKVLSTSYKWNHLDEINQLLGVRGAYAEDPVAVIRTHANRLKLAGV
Protocol: (§1) Inhibition of lipase activity by the water-insoluble phosphonates was performed in Triton X-100 micelles (2 mM final concentration) and measured by a continuous fluorescence method according to Duque et al, (J. Lipid Res. 37, 868-876 (1996)) using 3-O-hexadecyl-2-pyrenedecanoyl-1-trinitrophenylaminododecanoyl-sn-glycerol as a substrate. Lipase activity was determined at 30° C. from the dequenching of pyrene fluorescence at 378 nm (excitation at 342 nm, slit widths 5.0 nm each) (the initial linear increase in fluorescence intensity after addition of the lipase was used to measure enzyme activity). The measurements were performed in ethanol-water (1:3 by vol.) as a solvent.
(§2) Triton X-100 specially purified for membrane research (Hofmann La Roche) (10 μL of a 100 mM stock solution in chloroform) and the appropriate volume of a phosphonate solution in chloroform were mixed and the solvent was removed under a stream of nitrogen. The residue was dispersed in an 100 μM Tris-HCl puffer (pH 7.40 at 37° C.) by vigorous vortexing followed by addition of an aliquot of a lipase solution, giving a total volume of 500 μL. Incubations were performed at 4° C. The percentage of inhibition after 16 hrs in the reaction mixture was determined by measuring the residual lipase activity of appropriate aliquots (3 μL) as indicated above. Controls were run in parallel under identical conditions but in the absence of inhibitors.
(§3) The novel compounds were tested with respect to their ability to inhibit three selected microbial lipases with different substrate preferences. The lipase from Rhizopus oryzae was efficiently inactivated by the perylene- and NBD-inhibitors (FIG. 3a) at 4° C. for 16 hrs in 100 μM Tris-HCl puffer at inhibitor and lipase concentrations of 1.0 mM and 0.1 mM, respectively. […] This is in line with the assumption that lipases prefer long-chain glycerol esters as substrates, and evidently inhibitors as well. […] In contrast, the Pseudomonas species lipase was quantitatively inactivated by all synthesized organophosphonates (FIG. 3c).

[2] = biological target: T2, lipase from Rhizopus oryzae (ROL) (Rhizopus oryzae, UniProt P61872); experiment: as above; assay type: biochemical; conditions: 4° C. for 16 hrs, 100 μM Tris-HCl puffer, inhibitor 1.0 mM, lipase 0.1 mM; FIG. 3a
T2 construct: F. Spener and L. Haalck, University of Münster (gift)
T2 sequence (P61872 96-392): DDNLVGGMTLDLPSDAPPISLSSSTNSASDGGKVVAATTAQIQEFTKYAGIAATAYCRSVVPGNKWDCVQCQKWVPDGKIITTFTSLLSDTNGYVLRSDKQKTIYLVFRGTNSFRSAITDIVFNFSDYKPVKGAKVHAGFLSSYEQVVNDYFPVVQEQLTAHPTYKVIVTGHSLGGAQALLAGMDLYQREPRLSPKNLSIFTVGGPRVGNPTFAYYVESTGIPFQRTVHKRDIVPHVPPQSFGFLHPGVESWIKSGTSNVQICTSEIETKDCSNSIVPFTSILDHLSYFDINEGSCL
Protocol: as §1, §2, §3

SMILES | inhibition of lipase from Pseudomonas cepacia [1] | inhibition (inactivation) of lipase from Rhizopus oryzae [2]
CCCCCCCCOCC(COP(=O)(CCCCCC)Oc1ccc([N+](=O)[O-])cc1)NC(=O)CCCc1ccc2c3cccc4cccc(c5cccc1c52)c43 (stereo not drawn) [XXII, 2-(4-(3-Perylenyl)butanoyl)amino-2-deoxy-3-O-octyl-sn-glycero-1-O-hexylphosphonate p-nitrophenyl ester] | much more potent inhibitor | 
CCCCCCCCCCCCCCCCOCC(COP(=O)(CCCCCC)Oc1ccc([N+](=O)[O-])cc1)NC(=O)CCCCCCCc1ccc2c3cccc4cccc(c5cccc1c52)c43 (stereo not drawn) [XXIII, 2-(8-(3-Perylenyl)octanoyl)amino-2-deoxy-3-O-hexadecyl-sn-glycero-1-O-hexylphosphonate p-nitrophenyl ester] |  | somewhat more active
CCCCCCCCCCCCCCCCOCC(COP(=O)(CCCCCC)Oc1ccc([N+](=O)[O-])cc1)NC(=O)CCCCCCCCCCCNc1ccc([N+](=O)[O-])c2nonc12 (stereo not drawn) [XXV, 2-(NBD-dodecanoyl)amino-2-deoxy-3-O-hexadecyl-sn-glycero-1-O-hexylphosphonate p-nitrophenyl ester] |  | slightly more effective
